{"source": "patent US7304093B2", "about": "“Ketone compounds and compositions for cholesterol management and related uses” (Esperion Therapeutics, Inc., priority 2000, dated 2007)", "tested_on": "female obese Zucker rats", "assay": "Serum lipid and glycemic control variables in chow-fed obese female Zucker rats, daily oral gavage for two weeks", "format": "in vivo, rat", "details": "for change in vivo at 100 mg/kg: Rattus norvegicus, Table 9; for Glucose / HDL-C / NEFA / Non-HDL-C / TG / Insulin: serum, mean ± SEM; for Insulin: Table 12", "outline": "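Female obese Zucker fa rats, 10–12 wk, 400–500 g, chow-fed, dosed daily by oral gavage for 14 days in CMC/Tween 20 or ethanol/PEG-200 vehicle. After a 6-h fast, serum was sampled pre-dose, day 7 and day 14. Triglycerides, total cholesterol, NEFA and β-hydroxybutyrate were measured, plus lipoprotein cholesterol by gel-filtration profiling.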", "note": "Read-outs that look alike come from different tables or passages of the source. Marks after values point to notes of the source that are not given here.", "data": [{"smiles": "CC(C)(CCCCCC(=O)CCCCCC(C)(C)C(=O)O)C(=O)O", "note": "[Compound 210g, 2,2,14,14-Tetramethyl-8-oxopentadecanedioic acid]", "values": [{"measurement": "NEFA, percent increase (+) or decrease (−) of the pretreatment control value", "setting": "3 mg/kg daily oral, 1 wk", "value": "(−15) percent"}, {"measurement": "Glucose, percent increase (+) or decrease (−) of the pretreatment control value", "setting": "3 mg/kg daily oral, 2 wk", "value": "(+108) percent"}, {"measurement": "NEFA, percent increase (+) or decrease (−) of the pretreatment control value", "setting": "3 mg/kg daily oral, 2 wk", "value": "(−23) percent"}, {"measurement": "HDL-C, percent increase (+) or decrease (−) of the pretreatment control value", "setting": "10 mg/kg daily oral, 1 wk", "value": "(+158) percent"}, {"measurement": "NEFA, percent increase (+) or decrease (−) of the pretreatment control value", "setting": "10 mg/kg daily oral, 1 wk", "value": "(−17) percent"}, {"measurement": "TG, percent increase (+) or decrease (−) of the pretreatment control value", "setting": "10 mg/kg daily oral, 1 wk", "value": "(−36) percent"}, {"measurement": "HDL-C, percent increase (+) or decrease (−) of the pretreatment control value", "setting": "10 mg/kg daily oral, 2 wk", "value": "(+160) percent"}, {"measurement": "NEFA, percent increase (+) or decrease (−) of the pretreatment control value", "setting": "10 mg/kg daily oral, 2 wk", "value": "(−21) percent"}, {"measurement": "Non-HDL-C, percent increase (+) or decrease (−) of the pretreatment control value", "setting": "10 mg/kg daily oral, 2 wk", "value": "(+155) percent"}, {"measurement": "HDL-C, percent increase (+) or decrease (−) of the pretreatment control value", "setting": "30 mg/kg daily oral, 1 wk", "value": "(+256) percent"}, {"measurement": "Insulin, percent increase (+) or decrease (−) of the pretreatment control value", "setting": "30 mg/kg daily oral, 1 wk", "value": "(−35) percent"}, {"measurement": "NEFA, percent increase (+) or decrease (−) of the pretreatment control value", "setting": "30 mg/kg daily oral, 1 wk", "value": "(−32) percent"}, {"measurement": "Non-HDL-C, percent increase (+) or decrease (−) of the pretreatment control value", "setting": "30 mg/kg daily oral, 1 wk", "value": "(−48) percent"}, {"measurement": "TG, percent increase (+) or decrease (−) of the pretreatment control value", "setting": "30 mg/kg daily oral, 1 wk", "value": "(−78) percent"}, {"measurement": "HDL-C, percent increase (+) or decrease (−) of the pretreatment control value", "setting": "30 mg/kg daily oral, 2 wk", "value": "(+335) percent"}, {"measurement": "Insulin, percent increase (+) or decrease (−) of the pretreatment control value", "setting": "30 mg/kg daily oral, 2 wk", "value": "(−21) percent"}, {"measurement": "NEFA, percent increase (+) or decrease (−) of the pretreatment control value", "setting": "30 mg/kg daily oral, 2 wk", "value": "(−49) percent"}, {"measurement": "TG, percent increase (+) or decrease (−) of the pretreatment control value", "setting": "30 mg/kg daily oral, 2 wk", "value": "(−52) percent"}, {"measurement": "Glucose, percent increase (+) or decrease (−) of the pretreatment control value", "setting": "100 mg/kg daily oral, 1 wk", "value": "(−21) percent"}, {"measurement": "HDL-C, percent increase (+) or decrease (−) of the pretreatment control value", "setting": "100 mg/kg daily oral, 1 wk", "value": "(+151) percent"}, {"measurement": "Insulin, percent increase (+) or decrease (−) of the pretreatment control value", "setting": "100 mg/kg daily oral, 1 wk", "value": "(−46) percent"}, {"measurement": "NEFA, percent increase (+) or decrease (−) of the pretreatment control value", "setting": "100 mg/kg daily oral, 1 wk", "value": "(−30) percent"}, {"measurement": "Non-HDL-C, percent increase (+) or decrease (−) of the pretreatment control value", "setting": "100 mg/kg daily oral, 1 wk", "value": "(−92) percent"}, {"measurement": "TG, percent increase (+) or decrease (−) of the pretreatment control value", "setting": "100 mg/kg daily oral, 1 wk", "value": "(−93) percent"}, {"measurement": "Glucose, percent increase (+) or decrease (−) of the pretreatment control value", "setting": "100 mg/kg daily oral, 2 wk", "value": "(−10) percent"}, {"measurement": "HDL-C, percent increase (+) or decrease (−) of the pretreatment control value", "setting": "100 mg/kg daily oral, 2 wk", "value": "(+213) percent"}, {"measurement": "Insulin, percent increase (+) or decrease (−) of the pretreatment control value", "setting": "100 mg/kg daily oral, 2 wk", "value": "(−50) percent"}, {"measurement": "NEFA, percent increase (+) or decrease (−) of the pretreatment control value", "setting": "100 mg/kg daily oral, 2 wk", "value": "(−52) percent"}, {"measurement": "Non-HDL-C, percent increase (+) or decrease (−) of the pretreatment control value", "setting": "100 mg/kg daily oral, 2 wk", "value": "(−88) percent"}, {"measurement": "TG, percent increase (+) or decrease (−) of the pretreatment control value", "setting": "100 mg/kg daily oral, 2 wk", "value": "(−92) percent"}, {"measurement": "change in vivo at 100 mg/kg", "setting": "168 h, 100 mg/kg daily oral, 1 wk, read-out: HDL-Cholesterol, Percent Change from Pre-Treatment", "value": 72, "unit": "%"}, {"measurement": "change in vivo at 100 mg/kg", "setting": "168 h, 100 mg/kg daily oral, 1 wk, read-out: NonHDL-Cholesterol, Percent Change from Pre-Treatment", "value": -98, "unit": "%"}, {"measurement": "change in vivo at 100 mg/kg", "setting": "168 h, 100 mg/kg daily oral, 1 wk, read-out: TG, Percent Change from Pre-Treatment", "value": -93, "unit": "%"}, {"measurement": "change in vivo at 100 mg/kg", "setting": "336 h, 100 mg/kg daily oral, 2 wk, read-out: HDL-Cholesterol, Percent Change from Pre-Treatment", "value": 168, "unit": "%"}, {"measurement": "change in vivo at 100 mg/kg", "setting": "336 h, 100 mg/kg daily oral, 2 wk, read-out: NonHDL-Cholesterol, Percent Change from Pre-Treatment", "value": -99, "unit": "%"}, {"measurement": "change in vivo at 100 mg/kg", "setting": "336 h, 100 mg/kg daily oral, 2 wk, read-out: TG, Percent Change from Pre-Treatment", "value": -94, "unit": "%"}, {"measurement": "Glucose", "setting": "3 mg/kg daily oral, 1 wk", "value": "117 ± 4", "unit": "mg/dL"}, {"measurement": "HDL-C", "setting": "3 mg/kg daily oral, 1 wk", "value": "75 ± 6", "unit": "mg/dL"}, {"measurement": "NEFA", "setting": "3 mg/kg daily oral, 1 wk", "value": "1.1 ± 0.07"}, {"measurement": "Non-HDL-C", "setting": "3 mg/kg daily oral, 1 wk", "value": "23 ± 2", "unit": "mg/dL"}, {"measurement": "TG", "setting": "3 mg/kg daily oral, 1 wk", "value": "995 ± 50^a mg/dl"}, {"measurement": "Insulin", "setting": "3 mg/kg daily oral, 1 wk", "value": "10.0 ± 1.0", "unit": "ng/mL"}, {"measurement": "Glucose", "setting": "3 mg/kg daily oral, 2 wk", "value": "124 ± 4^a mg/dl"}, {"measurement": "HDL-C", "setting": "3 mg/kg daily oral, 2 wk", "value": "77 ± 8", "unit": "mg/dL"}, {"measurement": "NEFA", "setting": "3 mg/kg daily oral, 2 wk", "value": "1.0 ± 0.10"}, {"measurement": "Non-HDL-C", "setting": "3 mg/kg daily oral, 2 wk", "value": "25 ± 2", "unit": "mg/dL"}, {"measurement": "TG", "setting": "3 mg/kg daily oral, 2 wk", "value": "833 ± 57", "unit": "mg/dL"}, {"measurement": "Insulin", "setting": "3 mg/kg daily oral, 2 wk", "value": "7.3 ± 0.5", "unit": "ng/mL"}, {"measurement": "Glucose", "setting": "10 mg/kg daily oral, 1 wk", "value": "122 ± 3", "unit": "mg/dL"}, {"measurement": "HDL-C", "setting": "10 mg/kg daily oral, 1 wk", "value": "136 ± 11^a mg/dl"}, {"measurement": "NEFA", "setting": "10 mg/kg daily oral, 1 wk", "value": "1.0 ± 0.07"}, {"measurement": "Non-HDL-C", "setting": "10 mg/kg daily oral, 1 wk", "value": "22 ± 2", "unit": "mg/dL"}, {"measurement": "TG", "setting": "10 mg/kg daily oral, 1 wk", "value": "553 ± 35^a mg/dl"}, {"measurement": "Insulin", "setting": "10 mg/kg daily oral, 1 wk", "value": "10.5 ± 1.1", "unit": "ng/mL"}, {"measurement": "Glucose", "setting": "10 mg/kg daily oral, 2 wk", "value": "125 ± 4", "unit": "mg/dL"}, {"measurement": "HDL-C", "setting": "10 mg/kg daily oral, 2 wk", "value": "138 ± 8^a mg/dl"}, {"measurement": "NEFA", "setting": "10 mg/kg daily oral, 2 wk", "value": "0.95 ± 0.08"}, {"measurement": "Non-HDL-C", "setting": "10 mg/kg daily oral, 2 wk", "value": "34 ± 3^a mg/dl"}, {"measurement": "TG", "setting": "10 mg/kg daily oral, 2 wk", "value": "865 ± 69", "unit": "mg/dL"}, {"measurement": "Insulin", "setting": "10 mg/kg daily oral, 2 wk", "value": "9.1 ± 0.7", "unit": "ng/mL"}, {"measurement": "Glucose", "setting": "30 mg/kg daily oral, 1 wk", "value": "108 ± 4", "unit": "mg/dL"}, {"measurement": "HDL-C", "setting": "30 mg/kg daily oral, 1 wk", "value": "159 ± 12^a mg/dl"}, {"measurement": "NEFA", "setting": "30 mg/kg daily oral, 1 wk", "value": "0.88 ± 0.06"}, {"measurement": "Non-HDL-C", "setting": "30 mg/kg daily oral, 1 wk", "value": "14 ± 2^a mg/dl"}, {"measurement": "TG", "setting": "30 mg/kg daily oral, 1 wk", "value": "213 ± 19^a mg/dl"}, {"measurement": "Insulin", "setting": "30 mg/kg daily oral, 1 wk", "value": "6.4 ± 0.6^a ng/ml"}, {"measurement": "Glucose", "setting": "30 mg/kg daily oral, 2 wk", "value": "130 ± 4", "unit": "mg/dL"}, {"measurement": "HDL-C", "setting": "30 mg/kg daily oral, 2 wk", "value": "208 ± 14^a mg/dl"}, {"measurement": "NEFA", "setting": "30 mg/kg daily oral, 2 wk", "value": "0.66 ± 0.03"}, {"measurement": "Non-HDL-C", "setting": "30 mg/kg daily oral, 2 wk", "value": "30 ± 2", "unit": "mg/dL"}, {"measurement": "TG", "setting": "30 mg/kg daily oral, 2 wk", "value": "475 ± 38^a mg/dl"}, {"measurement": "Insulin", "setting": "30 mg/kg daily oral, 2 wk", "value": "7.7 ± 0.9^a ng/ml"}, {"measurement": "Glucose", "setting": "100 mg/kg daily oral, 1 wk", "value": "92 ± 4^a mg/dl"}, {"measurement": "HDL-C", "setting": "100 mg/kg daily oral, 1 wk", "value": "100 ± 8^a mg/dl"}, {"measurement": "NEFA", "setting": "100 mg/kg daily oral, 1 wk", "value": "0.98 ± 0.08"}, {"measurement": "Non-HDL-C", "setting": "100 mg/kg daily oral, 1 wk", "value": "2 ± 1^a mg/dl"}, {"measurement": "TG", "setting": "100 mg/kg daily oral, 1 wk", "value": "69 ± 5^a mg/dl"}, {"measurement": "Insulin", "setting": "100 mg/kg daily oral, 1 wk", "value": "6.4 ± 1.3^a ng/ml"}, {"measurement": "Glucose", "setting": "100 mg/kg daily oral, 2 wk", "value": "105 ± 3^a mg/dl"}, {"measurement": "HDL-C", "setting": "100 mg/kg daily oral, 2 wk", "value": "141 ± 12^a mg/dl"}, {"measurement": "NEFA", "setting": "100 mg/kg daily oral, 2 wk", "value": "0.66 ± 0.08"}, {"measurement": "Non-HDL-C", "setting": "100 mg/kg daily oral, 2 wk", "value": "3 ± 1^a mg/dl"}, {"measurement": "TG", "setting": "100 mg/kg daily oral, 2 wk", "value": "78 ± 10^a mg/dl"}, {"measurement": "Insulin", "setting": "100 mg/kg daily oral, 2 wk", "value": "6.0 ± 0.8^a ng/ml"}]}]}
